Data published in the supplement of paper PMC10307832.

Legend:
Test in all cases: relative viability (nuclei count vs DMSO), 5 days (fraction); higher = more cells survive
[1] = compound: C1CNCCC1C2=CC(=NN2)C3=CC=NC=C3 + Cc1nc(Nc2ncc(C(=O)Nc3c(C)cccc3Cl)s2)cc(N2CCN(CCO)CC2)n1 [Dasatinib] (partner 0.075 µM)
Summary of the method: (§1)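 Lung cancer cell lines in 1536-well plates got either a single drug or a fixed anchor-drug dose together with five library-drug doses (not always all listed) in √10 steps, by pin tool, on the day after seeding. Nuclei were counted after 5 days, and relative viability is the treated-to-vehicle ratio of nuclei counts. Values are medians of duplicate plates.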

[2] = compound: C[C@@H](N)c1ccc(C(=O)Nc2ccnc3[nH]ccc23)cc1 + CC(=O)c1c(C)c2cnc(Nc3ccc(N4CCNCC4)cn3)nc2n(C2CCCC2)c1=O [Palbociclib] (partner 0.5 µM)
Summary of the method: as §1

[3] = compound: C[C@@H](N)c1ccc(C(=O)Nc2ccnc3[nH]ccc23)cc1 + CC1(C)CCC(c2ccc(Cl)cc2)=C(CN2CCN(c3ccc(C(=O)NS(=O)(=O)c4ccc(N[C@H](CCN5CCOCC5)CSc5ccccc5)c(S(=O)(=O)C(F)(F)F)c4)cc3)CC2)C1 [Navitoclax] (partner 0.5 µM)
Summary of the method: as §1

Tanzisertib + AZD7762 = compound: O[C@H]1CC[C@H](Nc2ncc3nc(Nc4c(F)cc(F)cc4F)n([C@H]4CCOC4)c3n2)CC1 [Tanzisertib] + NC(=O)Nc1cc(-c2cccc(F)c2)sc1C(=O)N[C@H]1CCCNC1 [AZD7762] (partner 0.2 µM)
Summary of the method: as §1

| Cell Line | relative viability ([1]; first compound 0.08 µM) | relative viability ([1]; first compound 2.53 µM) | relative viability ([1]; first compound 8 µM) | relative viability ([2]; first compound 0.04 µM) | relative viability ([2]; first compound 0.1265 µM) | relative viability ([2]; first compound 0.4 µM) | relative viability ([2]; first compound 1.265 µM) | relative viability ([2]; first compound 4 µM) | relative viability ([3]; first compound 0.04 µM) | relative viability ([3]; first compound 0.1265 µM) | relative viability ([3]; first compound 0.4 µM) | relative viability ([3]; first compound 1.265 µM) | relative viability ([3]; first compound 4 µM) | relative viability (Tanzisertib + AZD7762; first compound 0.08 µM) | relative viability (Tanzisertib + AZD7762; first compound 0.253 µM) | relative viability (Tanzisertib + AZD7762; first compound 0.8 µM) | relative viability (Tanzisertib + AZD7762; first compound 2.53 µM) | relative viability (Tanzisertib + AZD7762; first compound 8 µM) | relative viability ([1]; first compound 0.8 µM) |
| --- | --- | --- | --- | --- | --- | --- | --- | --- | --- | --- | --- | --- | --- | --- | --- | --- | --- | --- | --- |
| NCI-H1755 | 0.483 | 0.474 | 0.399 | 0.432 | 0.436 | 0.437 | 0.407 | 0.367 | 1.04 | 0.985 | 0.962 | 0.933 | 0.622 | 0.462 | 0.474 | 0.441 | 0.399 | 0.384 | – |
| NCI-H1792 | 0.774 | 0.781 | 0.854 | 0.685 | 0.698 | 0.699 | 0.771 | 0.627 | 0.668 | 0.592 | 0.644 | 0.415 | 0.567 | 0.842 | 0.693 | 0.742 | 0.697 | 0.523 | 0.836 |
| NCI-H1793 | 0.335 | 0.352 | 0.404 | 0.348 | 0.295 | 0.355 | – | 0.385 | 0.415 | 0.421 | 0.409 | – | 0.501 | 0.643 | 0.574 | 0.462 | 0.406 | 0.397 | 0.357 |
| NCI-H1915 | 0.286 | 0.316 | 0.308 | – | 0.504 | 0.52 | – | 0.431 | 0.755 | 0.792 | 0.817 | – | 0.723 | 0.716 | 0.675 | 0.709 | 0.714 | 0.653 | 0.311 |
| NCI-H1944 | 0.201 | 0.231 | 0.232 | 0.37 | 0.334 | 0.351 | 0.387 | 0.266 | 1.05 | 1.01 | 1.06 | – | 0.876 | 0.526 | 0.507 | 0.52 | 0.422 | 0.458 | 0.206 |
| NCI-H1975 | 0.405 | 0.492 | 0.413 | 0.808 | 0.673 | 0.607 | 0.2 | 0.321 | 1.13 | 0.978 | 0.995 | 0.652 | 0.434 | 0.697 | 0.794 | 0.752 | 0.653 | 0.54 | 0.417 |
| NCI-H1993 | 0.538 | 0.56 | 0.667 | 0.688 | 0.74 | – | 0.595 | 0.607 | 0.904 | 1.01 | – | 0.901 | 0.947 | 1.21 | 0.867 | 0.731 | 0.68 | 0.823 | 0.541 |
| NCI-H2085 | 0.244 | 0.296 | 0.215 | 0.454 | 0.452 | 0.402 | 0.373 | 0.406 | 1.23 | 1.14 | 1.19 | 1.09 | 1 | – | 0.974 | 1.02 | 0.981 | 1.02 | – |
| NCI-H2087 | 0.662 | 0.75 | 0.84 | 0.24 | 0.263 | 0.299 | 0.254 | 0.28 | 0.911 | 0.917 | 0.903 | 0.903 | 0.855 | 1.48 | 1.07 | 1.33 | 1.41 | 1.26 | 1.02 |
| NCI-H2126 | 0.504 | 0.655 | 0.661 | 0.34 | 0.351 | 0.364 | 0.378 | 0.389 | 0.885 | 0.824 | 0.908 | 0.885 | 0.816 | 1.07 | 1.03 | 1.04 | 1.05 | 1.05 | 0.613 |
| NCI-H2170 | 0.536 | 0.574 | 0.643 | 0.423 | 0.412 | 0.423 | 0.417 | 0.395 | 0.682 | 0.564 | 0.57 | 0.61 | 0.479 | 1.09 | 0.897 | 0.791 | 1.02 | 0.676 | 0.52 |
| NCI-H2347 | 0.352 | 0.307 | 0.332 | 0.422 | 0.443 | 0.41 | 0.483 | 0.463 | 0.806 | 0.86 | 0.846 | 0.89 | 0.752 | 0.866 | 0.718 | 0.825 | 0.762 | 0.662 | 0.288 |
| NCI-H2405 | 0.201 | 0.187 | 0.202 | – | 0.505 | 0.494 | 0.3 | 0.233 | – | 0.799 | 0.513 | 0.41 | 0.279 | 0.767 | 0.794 | 0.757 | 0.795 | 0.617 | 0.213 |
| NCI-H3122 | 0.605 | 0.983 | 0.859 | 0.221 | 0.188 | 0.23 | 0.243 | 0.221 | 1.05 | 1.01 | 0.981 | 0.976 | 0.989 | 1.13 | 1.03 | 1.03 | 0.981 | 0.993 | 0.879 |
| PC-3 [JPC-3] | 0.982 | 1.01 | 0.966 | 0.544 | 0.516 | 0.53 | 0.551 | 0.575 | 0.833 | 0.866 | 0.907 | 0.897 | 0.798 | 0.81 | 0.937 | 0.844 | 0.733 | 0.679 | 1.1 |
| PC-14 | 0.245 | 0.296 | 0.221 | 0.552 | 0.537 | 0.483 | – | 0.367 | 0.963 | 1.04 | 0.984 | 0.935 | 0.808 | 0.476 | 0.531 | 0.367 | 0.386 | 0.213 | 0.272 |
| RERF-LC-KJ | 0.795 | 0.893 | 0.778 | 1.05 | 1.12 | 1.22 | 1.23 | 0.943 | 0.962 | 0.99 | 1.42 | 1.1 | 0.95 | 0.987 | 1.02 | 0.904 | 0.93 | 0.571 | 0.934 |
